Source: patent US4997931A, “Epipodophyllotoxin glycosides” (Bristol-Myers Squibb Company, priority 1990, dated 1991)
≈ marks a conversion by molar mass, not a printed value.

Columns and labels:
murine P388 leukemia = assay: In vivo antitumor activity in the lymphocytic leukemia P388 system; design: species or system mouse (Female CDF1 mice); conditions: i.p., once on day 1 (Q1D×1), over 125% significant
Experimental: Antitumor activity of representative compounds of the present invention was tested in the lymphocytic leukemia P388 system. Female CDF1 mice were inoculated intraperitoneally with 1.0×10^6 of leukemia cells per mouse (day 0) and test materials were intraperitoneally administered to mice once on day 1 (Q1D×1). […] The median survival time (MST) of each test group was recorded, and antitumor activity was expressed by means of T/C% values calculated by the following equation:
T/C%=(MST treated.div.MST control)×100
The T/C% values of over 125% are considered significant antitumor activity.
(§1) For the in vivo expermient, only the maximum T/C% and the dose giving the maximum value are shown.

[1] = tested on: Murine melanoma B16-F10 cells; assay: In vitro cytotoxicity against B16-F10 cells (neutral red staining, 72 hours); assay type: cell-based; conditions: Mus musculus, 72 hours incubation, read-out: Cytotoxicity (IC50, μg/ml)
Experimental: Murine melanoma B16-F10 cells were grown and maintained at 37° C. under a humidified atmosphere in a 5% CO2 incubator in Eagle's MEM medium (Nissui) containing kanamycin (60 μg/ml), and supplemented with heat inactivated fetal calf serum (10%) and non-essential amino acids (0.6%). Exponentially growing B16-F10 cells were harvested, counted and suspended in the culture medium at a concentration of 2.0×10^4 cells/ml. Twenty-four hours after planting cell suspension (180 μl) into wells of a 96-well microtiter plate, test materials (20 μl) were added to the wells and the plates were incubated for 72 hours. The cytotoxic activity against B16-F10 cells was colorimetrically determined at 540 nm after staining viable cells with neutral red solution.
as §1

[2] = 120 mg/kg/Day (dose giving maximum T/C%)
[3] = 60 mg/kg/Day (dose giving maximum T/C%)

Compound	Anti-P388 T/C % (maximum; MST treated/MST control ×100) (murine P388 leukemia; [2])	IC50 [1]	Anti-P388 T/C % (maximum; MST treated/MST control ×100) (murine P388 leukemia; 30 mg/kg/Day (dose giving maximum T/C%))	Anti-P388 T/C % (maximum; MST treated/MST control ×100) (murine P388 leukemia; [3])	Anti-P388 T/C % (maximum; MST treated/MST control ×100) (murine P388 leukemia; 10 mg/kg/Day (dose giving maximum T/C%))
COc1cc([C@@H]2c3cc4c(cc3[C@@H](O[C@@H]3O[C@H]([C@H]5COC(C)O5)[C@@H](O)[C@H]3O)[C@H]3COC(=O)[C@H]23)OCO4)cc(OC)c1O (single isomer, unassigned) [Example 2 (epimer I), 4'-demethyl-4-O-(5,6-O-ethylidene-β-D-allofuranosyl)epipodophyllotoxin]	150%	> 100 µg/mL	–	–	–
COc1cc([C@@H]2c3cc4c(cc3[C@@H](O[C@@H]3O[C@@H]5COC(C)O[C@H]5[C@H](O)[C@@H]3O)[C@H]3COC(=O)[C@H]23)OCO4)cc(OC)c1O (stereo partly drawn) [Example 3, 4'-Demethyl-4-O-(4.6-O-ethylidene-β-D-mannopyranosyl)epipodophyllotoxin]	–	0.12 µg/mL (≈ 0.204 µM)	186%	–	–
COc1cc([C@@H]2c3cc4c(cc3[C@@H](O[C@@H]3O[C@@H]5CO[C@@H](C)O[C@H]5[C@H](O)[C@H]3O)[C@H]3COC(=O)[C@H]23)OCO4)cc(OC)c1O [Etoposide, reference compound]	288%	0.21 µg/mL (≈ 0.357 µM)	–	–	–
COc1cc([C@@H]2c3cc4c(cc3[C@@H](O[C@@H]3O[C@@H]5COC(C)O[C@H]5[C@@H](O)[C@H]3O)[C@H]3COC(=O)[C@H]23)OCO4)cc(OC)c1O (stereo partly drawn) [Example 1, 4'-Demethyl-4-O-(4,6-O-ethylidene-β-D-allopyranosyl)epidpodophyllotoxin]	–	2.1 µg/mL (≈ 3.57 µM)	–	280%	–
COc1cc([C@@H]2c3cc4c(cc3[C@@H](O[C@@H]3O[C@H]([C@H]5COC(C)O5)[C@@H](O)[C@H]3O)[C@H]3COC(=O)[C@H]23)OCO4)cc(OC)c1O (single isomer, unassigned) [Example 2 (epimer II), 4'-demethyl-4-O-(5,6-O-ethylidene-β-D-allofuranosyl)epipodophyllotoxin]	–	–	–	140%	–
COc1cc([C@@H]2c3cc4c(cc3[C@@H](O[C@H]3O[C@@H]5COC(C)O[C@H]5[C@H](O)[C@@H]3O)[C@H]3COC(=O)[C@H]23)OCO4)cc(OC)c1O (stereo partly drawn) [Example 4, 4'-demethyl-4-O-(4,6-O-ethylidene-α-D-mannopyranosyl)epipodophyllotoxin]	–	19 µg/mL (≈ 32.3 µM)	–	–	124%
